Data on 19 compounds can be found in patent US8664221B2 (Santen Pharmaceutical Co., Ltd., priority 2008, dated 2014).

Each structure is given as a SMILES string.

In general, Emax refers to the greatest response seen or fitted, relative to the assay's reference.

The subject of the assay is IL-6 production induced by lipopolysaccharide (LPS) in human corneal epithelial cells (HCE-T). The assay can be described thus: Inhibition of LPS-induced IL-6 production in human corneal epithelial cells (GR agonist activity). The assay is classed as cell-based. The conditions noted are these: Corneal epithelial cell, 10 μL of 100 μM test compound solution per well, 4 hours incubation, efficacy relative to DEX. The protocol:
In order to evaluate a GR agonist activity of the present compound, the inhibitory effects on the IL-6 production induced by lipopolysaccharide (LPS) in human corneal epithelial cells. IL-6 levels in the conditioned medium were measured using the HTRF human IL-6 Kit (boehringer-Ingelheim, Cat No. 62IL6PEB), and the procedure was carried out according to the protocol attached to the kit. Hereinafter, the specific method will be described.
LPS solution: After LPS was dissolved in phosphate buffer solution (hereinafter referred to as PBS(−)), the resulting solution was diluted with 10% FBS-DMEM/F12 medium, whereby a 1 μg/mL LPS solution was prepared.
After a test compound was dissolved in dimethylsulfoxide (hereinafter referred to as DMSO), the resulting solution was diluted with 10% FBS-DMEM/F12 medium, whereby a 100 μM test compound solution was prepared. A 100 μM DEX solution was prepared by the same method, and the inhibitory ratio of IL-6 production of DEX was evaluated to use for calculating efficacy (% DEX).
Used cell: SV40-immortalized human corneal epithelial cells (HCE-T) (RIKEN)
1) HCE-T cells were harvested, and seeded at 2.0×10^4 cells/0.1 mL/well in a 96-well plate.
2) After incubation overnight, the medium was removed and a 80 μL of new 10% FBS-DMEM/Ham's F12 medium was added into each well.
3) A 10 μL of test compounds solution was added into each well.
4) A 10 μL of LPS solution was added into each well.
5) As a negative control, a 10 μL of 10% FBS-DMEM/Ham's F12 medium was added into each well instead of a test compound solution and a LPS solution.
6) As a positive control, a 10 μL of 10% FBS-DMEM/Ham's F12 medium containing 1% DMSO was added into each well instead of a test compound solution.
7) After 4 hours incubation, supernatants were collected and IL-6 levels in the supernatants were quantitated using the HTRF human IL-6 Kit.
8) The inhibition ratio of IL-6 production (%) was calculated according to the following equation.
The inhibition ratio of IL-6 production (%) was calculated according to the following equation. The inhibition ratio of IL-6 production (%)=100×{1−(IL-6 level in each group−mean value of IL-6 level in negative control)/(mean value of IL-6 level in positive control−mean value of IL-6 level in negative control)} (%)
Furthermore, the inhibition ratio of IL-6 production (efficacy (% DEX)) was also calculated according to the following equation. Efficacy(% DEX)=100×{(mean value of IL-6 inhibition in compound-treated group)/(mean value of IL-6 inhibition in DEX-treated group)} (%) (Results and Discussion)
Consider `COc1ccc([N+](=O)[O-])cc1OCc1c(-c2ccc(OS(=O)(=O)C3CC3)cc2OC)ccc2c1N(C)C(=O)C(C)(C)N2` [Compound No. 1-30, 7-(4-Cyclopropylsulfonyloxy-2-methoxyphenyl)-8-(2-methoxy-5-nitrophenoxymethyl)-1,3,3-trimethyl-3,4-dihydro-1H-quinoxalin-2-one], for which the Emax was 74%.
For `COc1cc(OS(=O)(=O)Cc2ccccc2Cl)ccc1-c1ccc2c(c1COc1cc(F)ccc1C)N(C)C(=O)C(C)(C)N2` [Compound No. 1-14, 7-[4-(2-Chlorobenzylsulfonyloxy)-2-methoxyphenyl]-8-(5-fluoro-2-methylphenoxymethyl)-1,3,3-trimethyl-3,4-dihydro-1H-quinoxalin-2-one], the Emax is 86%.
The same measure for `COc1cc(OS(=O)(=O)CC(C)C)ccc1-c1ccc2c(c1COC(=O)c1ccc(C)s1)N(C)C(=O)C(C)(C)N2` [Compound No. 1-21, 7-(4-Isobutylsulfonyloxy-2-methoxyphenyl)-8-(5-methylthiophen-2-ylcarbonyloxymethyl)-1,3,3-trimethyl-3,4-dihydro-1H-quinoxalin-2-one]: 71%; for `COc1cc(OS(=O)(=O)CCCCl)ccc1-c1ccc2c(c1COc1cc(F)ccc1C)N(C)C(=O)C(C)(C)N2` [Compound No. 1-40, 7-[4-(3-Chloropropylsulfonyloxy)-2-methoxyphenyl]-8-(5-fluoro-2-methylphenoxymethyl)-1,3,3-trimethyl-3,4-dihydro-1H-quinoxalin-2-one]: 84%; for `CCCS(=O)(=O)Oc1ccc(-c2ccc3c(c2COc2cc([N+](=O)[O-])ccc2OC)N(C)C(=O)C(C)(C)N3)c(OC)c1` [Compound No. 1-31, 8-(2-Methoxy-5-nitrophenoxymethyl)-7-(2-methoxy-4-propyl-sulfonyloxyphenyl)-1,3,3-trimethyl-3,4-dihydro-1H-quinoxalin-2-one]: 76%.
The compound `COc1cc(OS(=O)(=O)CCCN2CCOCC2)ccc1-c1ccc2c(c1COc1cc(F)ccc1C)N(C)C(=O)C(C)(C)N2` [Compound No. 3-3, 8-(5-Fluoro-2-methylphenoxymethyl)-7-[2-methoxy-4-[3-(morpholin-4-yl)propylsulfonyloxy]phenyl]-1,3,3-trimethyl-3,4-dihydro-1H-quinoxalin-2-one] registered an Emax of 85%.
Turning to `COc1cc(OS(=O)(=O)C2CCCC2)ccc1-c1ccc2c(c1COC(=O)c1ccc(C)s1)N(C)C(=O)C(C)(C)N2` [Compound No. 1-24, 7-(4-Cyclopentylsulfonyloxy-2-methoxyphenyl)-8-(5-methylthiophen-2-ylcarbonyloxymethyl)-1,3,3-trimethyl-3,4-dihydro-1H-quinoxalin-2-one], the Emax is 85%.
For `COc1cc(OS(=O)(=O)CCCNCc2ccccc2)ccc1-c1ccc2c(c1COc1cc(F)ccc1C)N(C)C(=O)C(C)(C)N2` [Compound No. 3-1, 7-[4-(3-Benzylaminopropylsulfonyloxy)-2-methoxyphenyl]-8-(5-fluoro-2-methylphenoxymethyl)-1,3,3-trimethyl-3,4-dihydro-1H-quinoxalin-2-one] the value was 78%.
The same measure for `COc1cc(OS(=O)(=O)C(C)C)ccc1-c1ccc2c(c1COc1cc([N+](=O)[O-])ccc1C)N(C)C(=O)C(C)(C)N2` [Compound No. 1-35, 7-(4-Isopropylsulfonyloxy-2-methoxyphenyl)-8-(2-methyl-5-nitro-phenoxymethyl)-1,3,3-trimethyl-3,4-dihydro-1H-quinoxalin-2-one]: 79%.
The compound `COc1cc(OS(=O)(=O)Cc2ccccc2C)ccc1-c1ccc2c(c1COc1cc(F)ccc1C)N(C)C(=O)C(C)(C)N2` [Compound No. 1-15, 8-(5-Fluoro-2-methylphenoxymethyl)-7-[2-methoxy-4-(2-methylbenzyl-sulfonyloxy)phenyl]-1,3,3-trimethyl-3,4-dihydro-IH-quinoxalin-2-one] gave an Emax of 88%.
The same measure for `CCCNCCCS(=O)(=O)Oc1ccc(-c2ccc3c(c2COc2cc(F)ccc2C)N(C)C(=O)C(C)(C)N3)c(OC)c1` [Compound No. 3-2, 8-(5-Fluoro-2-methylphenoxymethyl)-7-[2-methoxy-4-(3-propylaminopropyl-sulfonyloxy)phenyl]-1,3,3-trimethyl-3,4-dihydro-1H-quinoxalin-2-one]: 70%; for `COc1cc(OS(=O)(=O)C2CCCCC2)ccc1-c1ccc2c(c1COc1cc(F)ccc1C)N(C)C(=O)C(C)(C)N2` [Compound No. 1-17, 7-(4-Cyclohexylsulfonyloxy-2-methoxyphenyl)-8-(5-fluoro-2-methylphenoxymethyl)-1,3,3-trimethyl-3,4-dihydro-1H-quinoxalin-2-one]: 83%.
For `COc1cc(OS(C)(=O)=O)ccc1-c1ccc2c(c1COC(=O)c1ccc(C)s1)N(C)C(=O)C(C)(C)N2` [Compound No. 1-3, 7-(2-Methoxy-4-methylsulfonyloxyphenyl)-8-(5-methylthiophen-2-ylcarbonyloxymethyl)-1,3,3-trimethyl-3,4-dihydro-1H-quinoxalin-2-one] the value was 70%.
The same measure for `COc1cc(OS(=O)(=O)CCl)ccc1-c1ccc2c(c1COc1cc(F)ccc1C)N(C)C(=O)C(C)(C)N2` [Compound No. 1-41, 7-(4-Chloromethylsulfonyloxy-2-methoxyphenyl)-8-(5-fluoro-2-methylphenoxymethyl)-1,3,3-trimethyl-3,4-dihydro-1H-quinoxalin-2-one]: 85%.
`COc1cc(OS(C)(=O)=O)ccc1-c1ccc2c(c1COc1cc([N+](=O)[O-])ccc1C)N(C)C(=O)C(C)(C)N2` [Compound No. 1-36, 7-(2-Methoxy-4-methylsulfonyloxyphenyl)-8-(2-methyl-5-nitro-phenoxymethyl)-1,3,3-trimethyl-3,4-dihydro-1H-quinoxalin-2-one] displayed an Emax of 72%.
With `CCCS(=O)(=O)Oc1ccc(-c2ccc3c(c2COC(=O)c2ccc(C)cc2)N(C)C(=O)C(C)(C)N3)c(OC)c1` [Compound No. 1-39, 7-(2-Methoxy-4-propylsulfonyloxyphenyl)-8-(4-methylbenzoyloxy-methyl)-1,3,3-trimethyl-3,4-dihydro-1H-quinoxalin-2-one], the Emax came to 80%.
As for `COc1cc(OS(=O)(=O)CCC(F)(F)F)ccc1-c1ccc2c(c1COC(=O)c1ccc(C)s1)N(C)C(=O)C(C)(C)N2` [Compound No. 1-20, 7-[2-Methoxy-4-(3,3,3-trifluoropropylsulfonyloxy)phenyl]-8-(5-methylthiophen-2-ylcarbonyloxymethyl)-1,3,3-trimethyl-3,4-dihydro-1H-quinoxalin-2-one], the maximal effect (Emax) was determined as 74%.
For `COc1cc(OS(=O)(=O)C2CCCC2)ccc1-c1ccc2c(c1COc1cc([N+](=O)[O-])ccc1C)N(C)C(=O)C(C)(C)N2` [Compound No. 1-37, 7-(4-Cyclopentylsulfonyloxy-2-methoxyphenyl)-8-(2-methyl-5-nitrophenoxymethyl)-1,3,3-trimethyl-3,4-dihydro-1H-quinoxalin-2-one] the value was 74%; for `COc1cc(OS(=O)(=O)C2CC2)ccc1-c1ccc2c(c1COC(=O)c1ccc(C)s1)N(C)C(=O)C(C)(C)N2` [Compound No. 1-19, 7-(4-Cyclopropylsulfonyloxy-2-methoxyphenyl)-8-(5-methyl-thiophen-2-ylcarbonyloxymethyl)-1,3,3-trimethyl-3,4-dihydro-1H-quinoxalin-2-one], 88%.
